Data as given in patent publication US7579322B2, “Compositions and methods for promoting myocardial and peripheral angiogenesis” (Zimmer Orthobiologics, Inc., priority 2001, dated 2009).
Ends that are not written are not given here.

What was measured:
[1] = system: human aortic endothelial cells; assay: In vitro cell proliferation assay (CyQuant); assay type: cell-based; conditions: for proliferation of human aortic endothelial cells: compared to controls, 48 hours, two different concentrations
Description: The capacity of IGD-motif peptides according to the present invention to promote […] of human aortic endothelial cells was evaluated by conducting in vitro cell proliferation assays for the peptide of SEQ ID NOS 1 and 2, the DIG scramble peptide, and the capped version of the scramble, GGDIGGG (SEQ ID NO:7). Human aortic endothelial cells grown to ˜95% confluency were seeded (5000 cells/well) in growth medium for four hours to allow cells to adhere. The cells were then transferred to the starvation medium described in Example 1 and starved for about 18 hours. The cells were then transferred to starvation medium containing the test peptide, and the cells were allowed to proliferate for an additional 48 hours. The medium was then removed and the wells were washed with PBS. The cells were then subjected to a single freeze-thaw cycle. CyQuant reagent (Molecular Probes, Eugene, Oreg.) was then added to the cells according to the manufacturer's instructions and the cells incubated for 5 minutes in the dark. The intensity of the color—which is directly proportional to the number of cells—is read at an excitation wavelength of 485 nm and the emission wavelength set at 535 nm.

[2] = system: human smooth muscle cells; assay: In vitro cell migration assay (chemotaxis tray), smooth muscle cells; assay type: cell-based; conditions: compared to controls; 4 hours incubation
Description: (§1) The ability of IGD-motif peptides according to the present invention to promote cell migration of human endothelial and smooth muscle cells, which are processes characteristic of angiogenesis, was evaluated by conducting cell migration assays for the peptides of SEQ ID NOS 1 and 2, and a scramble of the IGD peptide characterized by the DIG sequence. A capped version of the scramble characterized by the GGDIGGG (SEQ ID NO:7) sequence was also tested.
(§2) Chemotaxis trays (Chemo Tx disposable migration chamber, 6 mm diameter, 300 μl/well, 96 wells with 8 μm filter membranes from Neuro Probe, Inc., Gaithersville, Md.) for evaluating cell migration of the peptides were sterilized by placing the trays under UV light overnight. Further operations with the membrane were carried out under aseptic conditions. The filter membranes were loaded with gelatin to provide a suitable environment for the cells testing by soaking in 3% acetic acid overnight and then for 2 hours in 0.1 mg/ml gelatin. They were then rinsed in sterile water and allowed to air dry. Such membranes may be stored at room temperature for up to 1 month.
The cells to be used in the assay (endothelial cells or smooth muscle cells) were starved for 24 hours before use in appropriate culture media containing 0.1% Fetal Bovine Serum (“FBS”) instead of the customary 10% FBS serum, and 1× penicillin-streptomycin antibiotics. The wells of the 96 well chamber of the chemotaxis unit were filled with media containing 0.1% serum alone or 0.1% serum and the test material (control or chemoattractant respectively). […]
After incubation the lid was removed and with the filter still in place the cells on the upper surface of the membrane were gently wiped off and washed by carefully flushing the top surface of the filter with media by holding the plate with filter at a 45° angle over a container. […] The membrane was then allowed to dry and the number of cells that migrated through the filter pores was determined by counting the number in a field under a light microscope.

[3] = system: quail chorioallantoic membrane (CAM); assay: Quail chorioallantoic membrane (CAM) angiogenesis assay; assay type: in vivo, Japanese quail (cotumix cotumix japonica); conditions: for angiogenesis / increase in blood vessels in quail CAM: 24 hours incubation, compared to controls / scramble peptides
Description: The activity of IGD-motif peptides for inducing migration and proliferation in endothelial or smooth muscle cells in an in vitro quail chorioallantoic membrane (CAM) model was assayed in a similar manner to that described by Parsons-Wingerter et al., Microvascular Research 55:201-214 (1998), the disclosure of which is hereby incorporated herein by reference. Briefly, fertilized Japanese quail eggs (cotumix cotumix japonica) were opened onto petri dishes on day 3 post-incubation. After 7 days of culture, the four IGD-motif peptides tested in Examples 1 and 2 (IGD, GGIGD (residues 1-5 of SEQ ID NO:2), DIG, GGDIGGG (SEQ ID NO: 7)) each dissolved in 1% polyvinyl pyrrolidine prewarmed to 37° C., were distributed evenly onto the surface of a CAM in separate petri dishes. After 24 hours of incubation, the CAM's were fixed, dissected and photographed at 10× magnification to visualize the arterial vascular tree, including endstage vessels. Digital images of triplicate CAM specimens were acquired at 10× magnification in grayscale, binarized to black-and-white, and skeletonized. The vessel branching pattern was analyzed and quantified by the fractal dimension.

[4] = system: human aortic endothelial cells; assay: In vitro cell migration assay (chemotaxis tray / modified Boyden chamber), endothelial cells; assay type: cell-based; conditions: for migration of human aortic endothelial cells: compared to negative control / scramble peptides, 4 hours incubation
Description: as §1, §2
The cells to be used in the assay (endothelial cells or smooth muscle cells) were starved for 24 hours before use in appropriate culture media containing 0.1% Fetal Bovine Serum (“FBS”) instead of the customary 10% FBS serum, and 1× penicillin-streptomycin antibiotics. The wells of the 96 well chamber of the chemotaxis unit were filled with media containing 0.1% serum alone or 0.1% serum and the test material (control or chemoattractant respectively). The filter membrane was positioned over the plate, aligning the holes in the corners of the frame with the four pins on the microplate, and the membrane was snapped into place making sure that the media in the wells touched the membrane completely. Fifty (50) μl of cell suspension in the starvation-media, at a concentration of 4×10^4 viable cells per charge were plated onto each site (over each well). The plate was incubated at 37° C. in an atmosphere of 5% CO2 for 4 hours.
After incubation the lid was removed and with the filter still in place the cells on the upper surface of the membrane were gently wiped off and washed by carefully flushing the top surface of the filter with media by holding the plate with filter at a 45° angle over a container. The cells on the undersurface of the membrane were then fixed in methanol (˜20 minutes) and stain with Diff-Quik Staining Set. The membrane was then allowed to dry and the number of cells that migrated through the filter pores was determined by counting the number in a field under a light microscope.

dermal fibroblasts = conditions: cited from earlier work
rat wound healing model = conditions: under certain conditions; cited from earlier work

## GGDIGGG (not fully specified) [reference compound]
[1]
  proliferation of human aortic endothelial cells: Neither the DIG scramble nor the capped GGDIGGG scramble (SEQ ID NO:7), in contrast, showed cell migration significantly greater than controls
[2]
  cell migration of human smooth muscle cells: Neither the DIG scramble nor the capped GGDIGGG scramble (SEQ ID NO:7) showed cell migration significantly greater than controls
[3]
  angiogenesis / increase in blood vessels in quail CAM: neither the DIG scramble nor the GGDIGGG (SEQ ID NO:7) capped scramble promoted angiogenesis significantly better than controls
[4]
  migration of human aortic endothelial cells: Neither the DIG scramble nor the capped GGDIGGG scramble (SEQ ID NO:7) showed cell migration significantly greater than controls

## GGIGDGG (not fully specified) [Gly-Gly-Ile-Gly-Asp-Gly-Gly]
[1]; FIG. 2
  proliferation response relative to the uncapped tripeptide: nearly twice that of the uncapped tripeptide
[1]
  proliferation of human aortic endothelial cells: promoted cell proliferation
[2]
  cell migration of human smooth muscle cells: promoted cell migration
[3]
  angiogenesis / increase in blood vessels in quail CAM: promoted angiogenesis
[3]; listed as capped peptide
  angiogenesis / increase in blood vessels in quail CAM: increase in blood vessels
[3]; at equivalent concentrations, FIG. 3A
  blood vessel increase in quail CAM compared to the uncapped peptide: better than the uncapped peptide
[4]; at a 10-fold lower concentration, FIG. 1A
  migration of human aortic endothelial cells compared to the uncapped peptide: better migration compared to the uncapped peptide
[4]
  migration of human aortic endothelial cells: increased migratory response
[4]; listed as SEQ ID NO. 2
  migration of human aortic endothelial cells: promoted cell migration

## Ile-Gly-Asp (IGD; Cell-attachment-promoting peptide)
[1]
  proliferation of human aortic endothelial cells: promoted cell proliferation
[2]
  cell migration of human smooth muscle cells: promoted cell migration
Dermal fibroblasts
  cell migration of dermal fibroblasts: can induce cell migration
[3]
  angiogenesis / increase in blood vessels in quail CAM: promoted angiogenesis
[3]; listed as uncapped peptide
  angiogenesis / increase in blood vessels in quail CAM: increase in blood vessels
[4]; FIG. 1A
  optimal concentration for migration of human aortic endothelial cells: 100 μm
[4]
  migration of human aortic endothelial cells: increased migratory response
[4]; listed as IGD tripeptide
  migration of human aortic endothelial cells: dose dependent effect
[4]; listed as SEQ ID NO. 1
  migration of human aortic endothelial cells: promoted cell migration

## Ile-Gly-Asp-Ser (IGDS; Cell-attachment-promoting peptide)
Rat wound healing model
  fibroblast migration: increase
  vessel number: increase
